Measured values as given in doi:10.1101/2024.09.25.615046, “Identification of SLC45A4 as a pain gene encoding a neuronal polyamine transporter” (bioRxiv, 2024).

Columns and labels:
[1] = target: T1, SLC45A4 (HsSLC45A4) (Homo sapiens, UniProt Q5BKX6); assay: competition of […]-spermidine uptake, Neuro-2A cells; type: cell-based; set-up: full-length; uptake: C-terminal FLAG tag, pLexM, overexpressed in mouse Neuro-2A cells; settings: 1 uM 14C-spermidine, pH 7.5, 37 °C; unreliable unit: printed mM is probably µM (lost symbol font)
T1 sequence (Q5BKX6 1-768): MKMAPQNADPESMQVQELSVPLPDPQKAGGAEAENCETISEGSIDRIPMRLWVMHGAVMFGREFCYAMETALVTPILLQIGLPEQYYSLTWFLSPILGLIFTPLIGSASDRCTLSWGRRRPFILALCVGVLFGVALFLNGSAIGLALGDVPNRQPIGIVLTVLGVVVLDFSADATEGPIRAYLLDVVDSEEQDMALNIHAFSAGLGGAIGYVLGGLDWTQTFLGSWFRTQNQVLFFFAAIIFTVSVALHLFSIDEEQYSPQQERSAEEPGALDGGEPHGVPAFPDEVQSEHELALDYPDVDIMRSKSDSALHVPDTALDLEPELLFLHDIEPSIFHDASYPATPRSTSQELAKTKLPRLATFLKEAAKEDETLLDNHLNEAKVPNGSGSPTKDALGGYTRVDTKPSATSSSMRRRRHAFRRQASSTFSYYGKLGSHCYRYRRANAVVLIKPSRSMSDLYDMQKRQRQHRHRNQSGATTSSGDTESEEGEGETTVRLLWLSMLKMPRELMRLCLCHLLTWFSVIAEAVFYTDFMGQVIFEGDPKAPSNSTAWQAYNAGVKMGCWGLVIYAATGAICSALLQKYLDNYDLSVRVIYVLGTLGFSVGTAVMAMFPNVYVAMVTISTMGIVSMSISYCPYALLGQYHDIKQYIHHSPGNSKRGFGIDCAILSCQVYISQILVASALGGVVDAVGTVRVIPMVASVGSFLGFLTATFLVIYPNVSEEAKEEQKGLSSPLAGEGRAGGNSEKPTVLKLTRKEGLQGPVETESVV

[2] = target: T1, SLC45A4 (HsSLC45A4); assay: nanoDSF thermal shift, purified protein; type: binding; set-up: full-length; uptake: C-terminal FLAG tag, pLexM, overexpressed in mouse Neuro-2A cells; nanoDSF: purified in DDM:CHS (eGFP-His tag removed by TEV); settings: 2.5-50 mM metabolite, DDM:CHS, 150 mM NaCl, 20 mM Tris or MES pH 7.5

Compound	IC50 [1] [mM]	thermal stability [2]
NCCCCCN [Cad]	67	–
NCCCCN [Put]	74	–
NCCCCNCCCN [Spd]	–	polyamines Spm and Spd eliciting the largest response
NCCCNCCCCNCCCN [Spm]	–	polyamines Spm and Spd eliciting the largest response
